Columns and labels:
Adult male C57BL/6 mice [1] = assay: Intra-amygdala KA-induced SE in mice, EEG, drug i.c.v. immediately prior to KA; type: in vivo; conditions: i.c.v. co-injection immediately prior to intra-amygdala KA; vs vehicle (antibody vs control IgG); lorazepam at 40 min
Method: (§1) Adult male C57BL/6 mice (20-25 g) were obtained from Harlan UK (Blackthorn, UK). Mice were first anesthetized using isoflurane (3-5%) and maintained normothermic by means of a feedback-controlled heat blanket (Harvard Apparatus Ltd, Kent, UK). Mice were next placed in a stereotaxic frame and three partial craniectomies performed to affix cortical skull-mounted EEG electrodes (Bilaney Consultants Ltd, Sevenoaks, UK). EEG was recorded using a Grass Comet XL digital EEG (Medivent Ltd, Lucan, Ireland). A guide cannula was affixed (coordinates from Bregma: AP = 0.94; L = 2.85 mm) and the assembly fixed in place with dental cement. Anesthesia was then discontinued and freely moving mice were placed inside a clear perspex recording chamber. EEG recordings were commenced and after establishing baseline EEG for a few minutes, an injection cannula was lowered through the guide cannula for injection of kainic acid (KA) (Ocean Produce International, Nova Scotia, Canada) into the basolateral amygdala nucleus (0.3 µg in 0.2 µl phosphate-buffered saline). Non-seizure control mice underwent the same surgical procedure but received 0.2 µl intra-amygdala vehicle. Mice were killed at different time-points (1, 4, 8 or 24 h) later and perfused with saline to remove intravascular blood components. Brains were either flash-frozen whole in 2-methylbutane at […] or perfused with 4% PFA for histopathology, or dissected on ice to obtain whole hippocampus or microdissected to obtain the different hippocampal subfields (CA1, DG and CA3).
Digitized EEG recordings were analyzed off-line using manual assessment and automated software. […] The duration of high-frequency (>5 Hz) high-amplitude (>2× baseline) polyspike discharges of ≥5 s duration (HAHFDs) was counted by a reviewer blind to treatment. Further EEG analysis was performed by uploading EEG into Labchart7 software (ADInstruments) to calculate the power spectral density (total power, a measure of the input signal's power (amplitude) over frequency) EEG spectrogram (spectral power against frequency and time).
All the following drugs were purchased from Sigma-Aldrich Ireland (Arklow, Ireland) and delivered by intracerebroventricular (i.c.v.) microinjection in 2 µl volume unless otherwise specified: Adenosine 5'-triphosphate (ATP) at 100 µM, Uridine-5'-triphosphate (UTP) at 100 µM, Uridine-5'-diphosphate (UDP) at 100 µM, 2-chloro-N6-cyclopentyladenosine (CCPA) 300 nM, Pyridoxal-phosphate-6-azophenyl-2,4-disulfonate (PPADS) at 50 µM, α,β- methylene- adenosine-5-triphosphate (α,β-meATP) at 0.1 nmol, 3-O-(4-benzoyl)benzyl-ATP (Bz-ATP) at 300 µM, Brillant Blue G (BBG) at 30 nM.
Lorazepam (Ativan®, Wyeth, Taplow, U.K.) (6 mg/kg) was administered intraperitoneally (i.p.) at 40 or 60 min after KA.
Next, a model of focal-onset SE was used to evaluate the contributions of ATP-gated receptors in vivo. Mice received intra-amygdala microinjection of KA to induce SE (Fig. 2C). […] The electroencephalogram (EEG) was recorded by using cranial electrodes (lower part of Fig. 2C). Seizures were curtailed after 40 min by the injection of lorazepam to minimize morbidity and mortality.

neonatal seizures = conditions: in vivo; cited from earlier work
Adult male C57BL/6 mice [2] = assay: Histopathology of ipsilateral hippocampal CA3 after SE (FJB and NeuN counts); type: in vivo; conditions: 24 h after SE; drug given prior to SE; vs vehicle
Method: as §1
Flash-frozen brains in 2-methylbutane were sectioned at -20°C on a Leica cryostat and 12 µm sections collected at the level of dorsal hippocampus (-1.8 mm and - 2.9 mm from Bregma according to a mouse stereotaxic atlas (Paxinos and Franklin, 2001). Neuronal death was assessed using Fluoro-Jade B (FJB) staining, as previously described (Engel et al., 2010; Murphy et al., 2010). Briefly, sections were air-dried and post-fixed in formalin followed by hydrating through graded alcohols. Sections were then rinsed in distilled water and transferred to 0.006% potassium permanganate solution for 15 min. Sections were rinsed again and transferred to a 0.001% FJB solution according to manufacturer's recommendations (Chemicon Europe Ltd, Chandlers Ford, UK). After staining, sections were mounted in DPX (Sigma-Aldrich). For NeuN immunohistochemistry, sections were fixed and permeabilized, blocked in goat serum and incubated overnight with anti-NeuN antibodies (Millipore Ireland B.V., Tullagreen, Ireland) followed by incubation with goat anti-rabbit IgG antibodies coupled to AlexaFluor 568 (BioSciences Limited, Dun Laoghaire, Ireland). Sections were examined using a Nikon 2000s epifluorescence microscope under Ex/Em wavelengths of 472/520 nm (green) and 540 to 580/600 to 660 nm (red) and images captured using a Hamamatsu Orca 285 camera. Cell counts were the average of two adjacent sections for the CA3 subfield under 40x lens magnification by an observer blinded to treatment.

[3] = in vivo; cited from earlier work
Adult male C57BL/6 mice [4] = assay: Refractory SE model in mice, drugs given 60 min post-KA, EEG during the next hour; type: in vivo
Method: as §1
Digitized EEG recordings were analyzed off-line using manual assessment and automated software. The occurrence of high amplitude high frequency spiking during seizures is synonymous with injury-causing electrographic seizures during SE (also termed type IV electrographic seizures) (Lowenstein et al., 1991; Henshall et al., 2000). The duration of high-frequency (>5 Hz) high-amplitude (>2× baseline) polyspike discharges of ≥5 s duration (HAHFDs) was counted by a reviewer blind to treatment. Further EEG analysis was performed by uploading EEG into Labchart7 software (ADInstruments) to calculate the power spectral density (total power, a measure of the input signal's power (amplitude) over frequency) EEG spectrogram (spectral power against frequency and time).
A-438079 (3-[[5-(2,3-Dichlorophenyl)-1H-tetrazol-1-yl]methyl]pyridine hydrochloride) (50 µM) was from Tocris Biosciences (Bristol, U.K.) and the P2X7R specific antibody was from Alomone Labs (APR-008, Alomone Labs, Ltd, Jerusalem, Israel) and injected at 0.7 mg/ml. Lorazepam (Ativan®, Wyeth, Taplow, U.K.) (6 mg/kg) was administered intraperitoneally (i.p.) at 40 or 60 min after KA.
To model refractory SE, seizures were allowed to continue beyond the normal time when lorazepam is given (40 min) and instead the effects of drugs were recorded 60 min post-KA on the EEG during the next hour.

hippocampal neurons = assay: Luciferine-luciferase luminescence assay of extracellular ATP release; type: cell-based, mouse; conditions: primary cultures; glutamate 100 µM; NEM 500 µM pre-treatment
Method: Hippocampal neurons were prepared as described previously (Diaz-Hernandez et al., 2008). Briefly, hippocampi were obtained from E17 mouse embryos and, after dissection and washing three times in Ca^2+/Mg^2+-free HBSS, tissue was digested in the same solution with 0.25% trypsin for 15 min at 37°C. Hippocampi were then washed three times in Ca^2+/Mg^2+-free HBSS and dissociated with a firepolished Pasteur pipette. Cells were counted, resuspended in plating medium (MEM, 10% fetal bovine serum, 0.6% glucose) and plated at a density of 5,000 cells/cm^2 on poly-L-lysine coated coverslips (1 mg/ml). After plating, neurons were cultured for 24-72 h in neuronal culture medium (Neurobasal, B-27, glutamax-I). For biochemical experiments, hippocampal neurons were plated on polylysine-coated (1 mg/ml) 60-mm plates at a density of 200,000 cells/cm^2, and cultured for 72 h in neuronal culture medium. AraC was added at a final concentration of 5 µM after 2 days in culture. Extracellular ATP concentration was measured as previously described (Diez-Zaera et al., 2011). Neurons were grown in 6-well plates at a density of 200,000 cells/cm^2. […] In some cases, ATP release was also measured in the presence of A-438079 (1 µM). ATP concentration was determined by comparison with a calibration curve generated with ATP standards diluted in the same buffer as the samples.

rat models = conditions: mifepristone before or after the onset of SE; cited from earlier work

In the case of `OC[C@H]1O[C@@H](n2cnc3c(NC4CCCC4)nc(Cl)nc32)[C@H](O)[C@@H]1O` [CCPA, 2-chloro-N6-cyclopentyladenosine], the “seizure time during SE (duration of HAHFDs)” value (“seizure time during SE” for short) (Adult male C57BL/6 mice [1]) is reported as “significantly reduced”.
In the case of `CCC1(c2ccccc2)C(=O)NC(=O)NC1=O` [phenobarbitone], the “cases in which neonatal seizures are not stopped” value (neonatal seizures) is listed as “over 50%”.
For `Nc1ncnc2c1ncn2[C@@H]1O[C@H](COP(=O)(O)OP(=O)(O)OP(=O)(O)O)[C@@H](OC(=O)c2ccc(C(=O)c3ccccc3)cc2)[C@H]1O` [BzATP, 3-O-(4-benzoyl)benzyl-ATP], the “seizure time during SE” value (Adult male C57BL/6 mice [1]) was “significant increase of seizure time”.
For `Cc1nc(N=Nc2ccc(S(=O)(=O)O)cc2S(=O)(=O)O)c(COP(=O)(O)O)c(C=O)c1O` [PPADS, Pyridoxal-phosphate-6-azophenyl-2,4-disulfonate], the “seizure time during SE” value (Adult male C57BL/6 mice [1]) was “only a weak, non-significant effect”, the “Counts of surviving CA3 neurons (NeuN)” value (Adult male C57BL/6 mice [2]) was “not protective” and the “FJB-positive cells within the CA3 subfield (neuronal death)” value (Adult male C57BL/6 mice [2]) was “did not afford protection”.
For `Nc1ncnc2c1ncn2[C@@H]1O[C@H](COP(=O)(O)OP(=O)(O)OP(=O)(O)O)[C@@H](O)[C@H]1O` [ATP, Adenosine 5'-triphosphate], the “seizure time during SE” value (Adult male C57BL/6 mice [1]) was “significantly increased”.
In the case of `O=C1Nc2ccc(Cl)cc2C(c2ccccc2Cl)=NC1O` (stereo not drawn) [lorazepam, Lorazepam], the duration of action [3] is listed as 2 to 8 h, the “total seizure time (duration of HAHFDs)” value (Adult male C57BL/6 mice [4]; given 60 min after KA, 60 min recording, vs vehicle) is listed as “failed to significantly reduce” and the “total seizure power (total EEG power)” value (Adult male C57BL/6 mice [4]; given 60 min after KA, vs vehicle) is listed as “significant reduction”. For the same compound, the “mice continued in SE” value (Adult male C57BL/6 mice [4]; given alone 60 min after KA, number of mice / group) was 4/7 and the reduction in power (Adult male C57BL/6 mice [4]; total power analysis, Fig. 9C, given 60 min after KA, compared to Veh) was about 50%.
For `N[C@@H](CCC(=O)O)C(=O)O` [glutamate], the “ATP release from hippocampal neurons” value (hippocampal neurons) was “induced the rapid release of ATP”.
For `CC#C[C@]1(O)CC[C@H]2[C@@H]3CCC4=CC(=O)CCC4=C3[C@@H](c3ccc(N(C)C)cc3)C[C@@]21C` [mifepristone], the efficiency of diazepam (rat models) is given as “increases efficiency of diazepam”.
For `CCN1C(=O)C=CC1=O` [NEM, N-Ethylmaleimide], the “ATP release from hippocampal neurons” value (hippocampal neurons) was “ATP release was blocked”.
In the case of `O=c1ccn([C@@H]2O[C@H](COP(=O)(O)OP(=O)(O)OP(=O)(O)O)[C@@H](O)[C@H]2O)c(=O)[nH]1` [UTP, Uridine-5'-triphosphate], the “seizure time during SE” value (Adult male C57BL/6 mice [1]) is reported as “no differences in seizure time”.
For `Nc1ncnc2c1ncn2C1OC(COP(=O)(O)CP(=O)(O)OP(=O)(O)O)C(O)C1O` (stereo not drawn) [α/β-methylATP, α,β-methylene-adenosine-5-triphosphate], the “seizure time during SE” value (Adult male C57BL/6 mice [1]) was “no differences in seizure time”.
For `O=c1ccn([C@@H]2O[C@H](COP(=O)(O)OP(=O)(O)O)[C@@H](O)[C@H]2O)c(=O)[nH]1` [UDP, Uridine-5'-diphosphate], the “seizure time during SE” value (Adult male C57BL/6 mice [1]) was “no differences in seizure time”.

— patent EP2604265A1, “P2x7 antagonists as frontline or adjunctive treatment against status epilepticus” (Royal College of Surgeons in Ireland (RCSI), priority 2011, dated 2013)
